A value given as a limit tells only on which side of the number the result lay.

The nature of this assay: Inhibition of human recombinant FBPase using fructose-1,6-biphosphate as substrate incubated for 3 mins prior to substrate addition by spectrophotometric analysis.
With `CCOc1cc2ncnc(Nc3ccc(F)c(Cl)c3)c2cc1OCC`, the IC50 amounted to 0.53 µM.

Take `CCN(CC)c1nc(Nc2cccc(Br)c2)c2cc(OC)c(OC)cc2n1`: the concentration for half-maximal inhibition (IC50) is > 10 µM.

As to `COCCOc1ccc2ncnc(Nc3cccc(Br)c3)c2c1`, the IC50 amounted to 2.9 µM.

In the case of `O=C(O)CCCCc1c(C(=O)O)[nH]c2cc(Cl)cc(Cl)c12`, the 50% inhibitory concentration (IC50) is 1.2 µM.

For the compound `CCOc1cc2ncnc(Nc3cc(-c4csc(C)n4)ccc3Br)c2cc1OCC`, the concentration for half-maximal inhibition (IC50) was > 10 µM.

For `CCOc1cc2ncnc(Nc3cccc(-c4csc(C(N)=O)n4)c3)c2cc1OCC`, the IC50 came out at 0.93 µM.

For `CCOc1cc2ncnc(Nc3cccc(Cl)c3)c2cc1OCC`, the IC50 stood at 1.6 µM.

In the case of `COc1cc2nc(C)nc(Nc3cccc(Br)c3)c2cc1OC`, the IC50 came to 4.5 µM.

As to `CCOc1cc2ncnc(Nc3cccc(-c4cncs4)c3)c2cc1OCC`, the IC50 stood at 0.98 µM.

In the case of `CCOc1cc2ncnc(Nc3cc(-c4csc(C)n4)ccc3Cl)c2cc1OCC`, the IC50 worked out at 1.7 µM.

As for `CCOc1cc2nc(C(F)(F)F)nc(Nc3cccc(-c4csc(C)n4)c3)c2cc1OCC`, the half-maximal inhibitory concentration (IC50) was > 10 µM.

In the case of `CCCOc1cc2ncnc(Nc3cccc(-c4csc(C)n4)c3)c2cc1OCC`, the IC50 came to 1 µM.

As to `CCOc1cc2nc(CN3CCOCC3)nc(Nc3cccc(Br)c3)c2cc1OCC`, the IC50 is > 10 µM.

For the compound `O=C(O)CCc1c(C(=O)NO)[nH]c2cc(Cl)cc(Cl)c12`, the IC50 was > 10 µM.

As for `COc1cc2ncnc(Nc3cccc(Cl)c3)c2cc1OC` [TYRPHOSTIN AG-1478], the IC50 is 1.3 µM.

Consider `CCOc1cc2nc(CS(C)(=O)=O)nc(Nc3cccc(-c4csc(C)n4)c3)c2cc1OCC`, for which the concentration for half-maximal inhibition (IC50) turned out to be 2.1 µM.

Consider `CCOc1cc2ncnc(Nc3cccc(-c4csc(C)n4)c3)c2cc1OC`, for which the IC50 worked out at 3.4 µM.

For the compound `CCOc1cc2ncnc(Nc3cccc(Br)c3)c2cc1OCC`, the half-maximal inhibitory concentration (IC50) amounted to 1.7 µM.

For `NC(=O)CCc1c(C(=O)O)[nH]c2cc(Cl)cc(Cl)c12`, the concentration for half-maximal inhibition (IC50) worked out at 2.2 µM.

Regarding `CCOc1cc2ncnc(Nc3cc(-c4csc(C)n4)c(F)cc3F)c2cc1OCC`, the IC50 was > 10 µM.

With `CC(C)Oc1ccc2ncnc(Nc3cccc(Br)c3)c2c1`, the concentration for half-maximal inhibition (IC50) was > 10 µM.

With `CCOc1cc2ncnc(Nc3ccc(Cl)c(-c4csc(C)n4)c3)c2cc1OCC`, the half-inhibitory concentration (IC50) was 5.3 µM.

As to `CCOc1cc2nc(CN3CCCC3)nc(Nc3cccc(-c4csc(C)n4)c3)c2cc1OCC`, the half-inhibitory concentration (IC50) was found to be 6.1 µM.

Take `COc1cc2ncnc(Nc3cccc(-c4csc(C)n4)c3)c2cc1OC(C)C`: the IC50 is > 10 µM.

Take `CCOC(=O)c1[nH]c2cc(Cl)cc(Cl)c2c1CCC(=O)O`: the IC50 is > 10 µM.

Turning to `CCOc1cc2nc(CC(=O)O)nc(Nc3cccc(-c4csc(C)n4)c3)c2cc1OCC`, the IC50 is 0.96 µM.

For `COCCOc1cc2c(Nc3cccc(Br)c3)ncnc2cc1OC`, the half-maximal inhibitory concentration (IC50) was determined as 5.5 µM.

In the case of `CCOc1cc2ncnc(Nc3ccc(F)c(-c4csc(C)n4)c3F)c2cc1OCC`, the IC50 is > 10 µM.

In the case of `CCOc1cc2nc(CCCl)nc(Nc3cccc(-c4csc(C)n4)c3)c2cc1OCC`, the IC50 was 1 µM.

For `CCOc1cc2ncnc(Nc3cccc(-c4csc(N)n4)c3)c2cc1OCC`, the concentration for half-maximal inhibition (IC50) was 3.5 µM.

As for `COc1cc2ncnc(Nc3cccc(-c4csc(C)n4)c3)c2cc1OC`, the IC50 was 4.4 µM.

As for `COc1cc2c(Nc3cccc(-c4csc(C)n4)c3)ncnc2cc1OC1CCCC1`, the IC50 was > 10 µM.

`CCOc1cc2ncnc(Nc3cccc(Br)c3)c2cc1[N+](=O)[O-]`: the IC50 was 3.6 µM.

Regarding `CCOc1cc2c(Nc3cccc(-c4csc(C)n4)c3)ncnc2cc1OC(C)C`, the IC50 is 0.42 µM.

As to `CCOc1cc2ncnc(Nc3cccc(-c4csc(C5CC5)n4)c3)c2cc1OCC`, the IC50 was 0.83 µM.

With `CCOc1cc2ncnc(Nc3cccc(-c4coc(C)n4)c3)c2cc1OCC`, the IC50 came out at 0.5 µM.

On to `O=C(O)CCCc1c(C(=O)O)[nH]c2cc(Cl)cc(Cl)c12`, for which the IC50 was found to be 1 µM.

As to `CCOc1cc2nc(CS(C)(=O)=O)nc(Nc3cccc(Br)c3)c2cc1OCC`, the IC50 is > 10 µM.

`CCOc1cc2nc(Cc3ccccc3)nc(Nc3cccc(-c4csc(C)n4)c3)c2cc1OCC`: the half-inhibitory concentration (IC50) is > 10 µM.

Take `CCOc1cc2nc(CN)nc(Nc3cccc(-c4csc(C)n4)c3)c2cc1OCC`: the IC50 stood at 1.5 µM.

As for `O=C(O)c1ccc2c(Nc3cccc(Br)c3)ncnc2c1`, the IC50 was > 10 µM.

In the case of `O=C(O)c1[nH]c2cc(Cl)cc(Cl)c2c1CCCO`, the IC50 amounted to 2.7 µM.

On to `CCOc1cc2ncnc(Nc3cccc(-c4ccccc4C)c3)c2cc1OCC`, for which the IC50 is > 10 µM.

`CN(C)C(=O)CCc1c(C(=O)O)[nH]c2cc(Cl)cc(Cl)c12`: the half-inhibitory concentration (IC50) came out at 1.7 µM.

In the case of `CCOc1cc2ncnc(Nc3cccc(-c4csc(C)n4)c3)c2cc1OCC`, the IC50 was ≥ 0.64 µM.

As for `Cc1nc(-c2cccc(Nc3ncnc4cc5c(cc34)OCCO5)c2)cs1`, the 50% inhibitory concentration (IC50) is > 10 µM.

With `CCOc1cc2nc(-c3ccccc3)nc(Nc3cccc(Br)c3)c2cc1OCC`, the IC50 is > 10 µM.

As for `CCOc1nc(-c2cccc(Nc3ncnc4cc(OCC)c(OCC)cc34)c2)cs1`, the IC50 stood at 6.1 µM.

As to `CCOc1cc2ncnc(Nc3cc(-c4csc(C)n4)ccc3CC)c2cc1OCC`, the IC50 came to 2.1 µM.

With `CCOc1ccc(-c2csc(C)n2)cc1Nc1ncnc2cc(OCC)c(OCC)cc12`, the IC50 was determined as 1.8 µM.

`CCOc1cc2nc(CCN)nc(Nc3cccc(-c4csc(C)n4)c3)c2cc1OCC`: the IC50 came to 0.22 µM.

In the case of `CCOc1cc2nc(CCCCl)nc(Nc3cccc(-c4csc(C)n4)c3)c2cc1OCC`, the IC50 was 4.1 µM.

Regarding `CCOc1cc2ncnc(Nc3cccc(-c4nc[nH]n4)c3)c2cc1OCC`, the half-maximal inhibitory concentration (IC50) is 0.64 µM.

With `CCOc1cc2nc(CN(C)C)nc(Nc3cccc(-c4csc(C)n4)c3)c2cc1OCC`, the IC50 was determined as 2 µM.

`COc1cc2ncnc(Nc3cccc(Br)c3)c2cc1[N+](=O)[O-]`: the 50% inhibitory concentration (IC50) is > 10 µM.

In the case of `CCOc1cc2nc(C(C)C)nc(Nc3cccc(-c4csc(C)n4)c3)c2cc1OCC`, the IC50 is 5 µM.

Consider `CCOc1cc2ncnc(Nc3cccc(-c4cc[nH]n4)c3)c2cc1OCC`, for which the concentration for half-maximal inhibition (IC50) is 0.73 µM.

Turning to `CCOc1cc2nc(Cc3ccccc3)nc(Nc3cccc(Br)c3)c2cc1OCC`, the half-inhibitory concentration (IC50) is > 10 µM.

`CCOc1cc2ncnc(Nc3cccc(-c4cocn4)c3)c2cc1OCC`: the IC50 is 3.6 µM.

For the compound `O=C(O)CCc1c(CO)[nH]c2cc(Cl)cc(Cl)c12`, the IC50 is > 10 µM.

On to `CCOc1cc2ncnc(Nc3cccc(C(=O)CBr)c3)c2cc1OCC`, for which the IC50 was > 10 µM.

Take `O=C(O)Cc1c(C(=O)O)[nH]c2cc(Cl)cc(Cl)c12`: the IC50 was > 10 µM.

Regarding `CCOc1cc2ncnc(Nc3cccc(-c4ccccn4)c3)c2cc1OCC`, the 50% inhibitory concentration (IC50) was 0.39 µM.

As for `CCNCc1nc(Nc2cccc(-c3csc(C)n3)c2)c2cc(OCC)c(OCC)cc2n1`, the concentration for half-maximal inhibition (IC50) amounted to 6 µM.

On to `CCOc1cc2ncnc(Nc3cccc(C(C)=O)c3)c2cc1OCC`, for which the concentration for half-maximal inhibition (IC50) is > 10 µM.

For the compound `CCOc1cc2ncnc(Nc3cccc(-c4cccnc4)c3)c2cc1OCC`, the IC50 is 1.4 µM.

Regarding `CCCOc1cc2c(Nc3cccc(-c4csc(C)n4)c3)ncnc2cc1OC`, the IC50 is > 10 µM.

For `CCOc1cc2nc(CC(C)C)nc(Nc3cccc(Br)c3)c2cc1OCC`, the IC50 is > 10 µM.

On to `CN(C)C(=O)c1[nH]c2cc(Cl)cc(Cl)c2c1CCC(=O)O`, for which the half-inhibitory concentration (IC50) was > 10 µM.

Regarding `CCOc1cc2nc(CC)nc(Nc3cccc(-c4csc(C)n4)c3)c2cc1OCC`, the IC50 was determined as 1.5 µM.

Regarding `CCOc1cc2c(Nc3cccc(-c4csc(C)n4)c3)ncnc2cc1OC`, the IC50 turned out to be 1.2 µM.

As for `CCOc1cc2ncnc(Nc3cccc(-c4cncnc4)c3)c2cc1OCC`, the half-maximal inhibitory concentration (IC50) came out at 1.2 µM.

As to `CCOc1cc2ncnc(Nc3ccc(F)c(-c4csc(C)n4)c3)c2cc1OCC`, the IC50 worked out at 0.61 µM.

Consider `COCCOc1cc2c(Nc3cccc(-c4csc(C)n4)c3)ncnc2cc1OC`, for which the 50% inhibitory concentration (IC50) is > 10 µM.

Regarding `CCC(C)Oc1cc2ncnc(Nc3cccc(-c4csc(C)n4)c3)c2cc1OC` (stereo not drawn), the IC50 was > 10 µM.

In the case of `CCCc1nc(-c2cccc(Nc3ncnc4cc(OCC)c(OCC)cc34)c2)cs1`, the IC50 is > 10 µM.

As for `CCOc1cc2ncnc(Nc3cccc(I)c3)c2cc1OCC`, the IC50 was 2.1 µM.

Take `CCOc1cc2ncnc(Nc3cccc(-c4csc(NN)n4)c3)c2cc1OCC`: the concentration for half-maximal inhibition (IC50) came to 4.5 µM.

For the compound `C#Cc1cccc(Nc2ncnc3cc(OCC)c(OCC)cc23)c1`, the concentration for half-maximal inhibition (IC50) amounted to 2.4 µM.

`CCOc1cc2ncnc(Nc3ccc(Cl)c(C)c3)c2cc1OCC`: the IC50 was > 10 µM.

As for `CCOc1cc2ncnc(Nc3ccccc3)c2cc1OCC`, the IC50 was > 10 µM.

Turning to `CCOc1cc2ncnc(Nc3cccc(-c4cccc(C)c4)c3)c2cc1OCC`, the IC50 was > 10 µM.

Take `CCCOc1cc2ncnc(Nc3cccc(-c4csc(C)n4)c3)c2cc1OC`: the half-inhibitory concentration (IC50) is ≥ 5.6 µM.

For `CCOc1cc2ncnc(Nc3cccc(-c4csc(NC)n4)c3)c2cc1OCC`, the concentration for half-maximal inhibition (IC50) amounted to 0.8 µM.

Consider `CCOc1cc2nc(COC)nc(Nc3cccc(-c4csc(C)n4)c3)c2cc1OCC`, for which the concentration for half-maximal inhibition (IC50) was 1.4 µM.

As to `CCOc1cc2nc(C)nc(Nc3cccc(-c4csc(C)n4)c3)c2cc1OCC`, the IC50 was found to be 1 µM.

Take `CCOc1cc2ncnc(Nc3cc(-c4csc(C)n4)ccc3F)c2cc1OCC`: the half-maximal inhibitory concentration (IC50) turned out to be 0.48 µM.

Take `Nc1cc2c(Nc3cccc(Br)c3)ncnc2cc1Cl`: the IC50 was > 10 µM.

As to `CCOc1cc2nc(Cl)nc(Nc3cccc(-c4csc(C)n4)c3)c2cc1OCC`, the IC50 was 2.6 µM.

Consider `CCOc1cc2ncnc(Nc3cccc(-c4cnc(C)o4)c3)c2cc1OCC`, for which the half-inhibitory concentration (IC50) stood at 4 µM.

Take `Cc1nc(-c2cccc(Nc3ncnc4ccccc34)c2)cs1`: the concentration for half-maximal inhibition (IC50) is > 10 µM.

On to `Nc1ncnc2c1ncn2[C@@H]1O[C@H](COP(=O)(O)O)[C@@H](O)[C@H]1O` [ADENOSINE PHOSPHATE], for which the IC50 stood at 12.3 µM.

For the compound `COC(=O)CCc1c(C(=O)O)[nH]c2cc(Cl)cc(Cl)c12`, the half-maximal inhibitory concentration (IC50) is 7 µM.

In the case of `CCOc1cc2ncnc(Nc3cccc(-c4ccc(C)cc4)c3)c2cc1OCC`, the half-maximal inhibitory concentration (IC50) is > 10 µM.

Take `CCOc1cc2ncnc(Nc3cccc(-c4ccccc4)c3)c2cc1OCC`: the IC50 was > 10 µM.

As for `CCOc1cc2ncnc(Nc3cccc(F)c3)c2cc1OCC`, the IC50 stood at 9.2 µM.

In the case of `CCOc1cc2ncnc(Nc3cccc(-c4nc(C(N)=O)cs4)c3)c2cc1OCC`, the 50% inhibitory concentration (IC50) was determined as 0.83 µM.

For `CCOc1cc2ncnc(Nc3cccc(C#N)c3)c2cc1OCC`, the IC50 was > 10 µM.

The values above are taken from ChEMBL document CHEMBL2086262, “Ligand-based designing, in silico screening, and biological evaluation of new potent fructose-1,6-bisphosphatase (FBPase) inhibitors” (Eur J Med Chem, 2012).
